Key:
[1] = test system: low passage proliferating fibroblasts; assay: Apoptosis of low passage proliferating lung fibroblasts (cleaved caspase-3, DAPI); format: cell-based, human; conditions: low passage proliferating fibroblasts from the same donor, 96 hours, 6-point dose-response, N=3; for EC50: read-out: Proliferating fibroblast apoptosis EC50
Description: (§1) Human adult lung fibroblasts were replicatively passaged until senescence (confirmed by RNA and senescence associated beta galactosidase staining). In a parallel experiment, low passage proliferating fibroblasts from the same donor were compared. Cells were plated into 96-well plates and treated with the indicated compound (6-point dose-response) and incubated for 96 hours. Cells were then fixed using 4% PFA, permeabilized using 0.25% triton x-100, and nuclear stained using a primary antibody for cleaved caspase-3, secondary fluorescence conjugated antibody, and DAPI. Cells were then imaged using a 4× objective on a Cytation5 microscope and cell counts were quantified using automated software (Biotek Gen5). Data shown are the EC50 values calculated for each compounds efficacy to induce apoptosis in senescence vs. proliferating lung fibroblasts, from the calculated dose-response curves, N=3 independent experiments.

[2] = test system: senescent human adult lung fibroblasts; assay: Apoptosis of senescent lung fibroblasts (cleaved caspase-3, DAPI); format: cell-based; conditions: replicatively senescent human adult lung fibroblasts, 96 hours, 6-point dose-response, N=3; for EC50: read-out: Senescent fibroblast apoptosis EC50
Description: as §1

[3] = test system: Human adult lung fibroblasts (passage 3); assay: Fibroblast activation (TGFβ, alpha-smooth muscle actin); format: cell-based; conditions: +2 ng/mL TGFβ, 96 hours, alpha-smooth muscle actin intensity
Description: Human adult lung fibroblasts (passage 3) were plated into 96-well plates and treated with the indicated compound (6-point dose-response) +2 ng/mL TGFβ to stimulated fibroblast activation. Cells were incubated for 96 hours, fixed using 4% PFA, permeabilized using 0.25% triton x-100, and stained using a primary antibody recognizing alpha-smooth muscle actin and a secondary fluorescent conjugated antibody, and DAPI. Cells were then imaged using a 4× objective on a Cytation5 microscope and alpha-smooth muscle actin intensity was quantified using automated software (Biotek Gen5). Data shown are the IC50 values for each compounds efficacy at reducing expression of alpha-smooth muscle actin, calculated from the calculated dose-response curves, N=3 independent.

[4] = in vitro; format: in vitro ADME; conditions: rat; for Plasma bound / Plasma unbound: 4 h
Description: Plasma protein binding assays were also performed (Table 2). Compounds were incubated with rat plasma for 4 hours. The percent of F-4N recovered was analyzed by LC-MS. Warfarin was used as a control for a compound with high plasma protein binding. Analysis performed by Cyprotex (Framingham, MA).

[5] = test system: wild type mice; assay: Comparative flavonoid efficacy and toxicity in aged brain and liver (real-time PCR); format: in vivo, mouse
From the text: Five-month-old and twenty-eight month old wild type mice were oral gavage treated with the indicated concentrations of flavonoids (F, Q, compound 19, or compound 20) or vehicle for four consecutive days and were euthanized one week later.

[6] = test system: Human adult lung fibroblasts (passage 3); assay: TGFβ stimulated collagen deposition; format: cell-based; conditions: +2 ng/mL TGFβ, 96 hours
Description: (§2) For senescent fibroblast survival experiments, human adult lung fibroblasts were replicatively passaged until senescence (confirmed by RNA and senescence associated beta galactosidase staining). Cells were then plated into 96-well plates and treated with the indicated compound and incubated for 96 hours. Cells were then fixed using 4% PFA, permeabilized using 0.25% triton x-100, and nuclear stained using DAPI. Cells were then imaged using a 4× objective on a Cytation5 microscope and cell counts were quantified using automated software (Biotek Gen5). Data shown are plotted as % survival, normalized to the vehicle treated well. Mean+/−SEM, N=3 independent experiments. For the TGFβ stimulated collagen deposition experiments (square datapoints), human adult lung fibroblasts (passage 3) were plated into 96-well plates and treated with the indicated compound +2 ng/mL TGFβ to stimulated collagen expression. Cells were incubated for 96 hours, fixed using 4% PFA, permeabilized using 0.25% triton x-100, and stained using a primary antibody recognizing type I collagen and a secondary infrared conjugated antibody. Wells were then imaged at 1× using a Odyssey Lx (LI-CORE) infrared imager and collagen intensity was quantified using automated software. Data shown are plotted as % collagen intensity, normalized to the vehicle treated well. Mean+/−SEM, N=3 independent experiments.

[7] = test system: senescent human adult lung fibroblasts; assay: Senescent fibroblast survival (DAPI cell counts); format: cell-based; conditions: 96 hours, 3 point and 6-point dose response
Description: as §2

[8] = target: T1, DRAK1 (Homo sapiens, UniProt Q9UEE5); assay: DRAK1 kinase activity assay (radiolabeled ATP, Reaction Biology); format: biochemical; conditions: FIG. 30
T1 construct: purchased Reaction Biology
T1 sequence (Q9UEE5 1-414): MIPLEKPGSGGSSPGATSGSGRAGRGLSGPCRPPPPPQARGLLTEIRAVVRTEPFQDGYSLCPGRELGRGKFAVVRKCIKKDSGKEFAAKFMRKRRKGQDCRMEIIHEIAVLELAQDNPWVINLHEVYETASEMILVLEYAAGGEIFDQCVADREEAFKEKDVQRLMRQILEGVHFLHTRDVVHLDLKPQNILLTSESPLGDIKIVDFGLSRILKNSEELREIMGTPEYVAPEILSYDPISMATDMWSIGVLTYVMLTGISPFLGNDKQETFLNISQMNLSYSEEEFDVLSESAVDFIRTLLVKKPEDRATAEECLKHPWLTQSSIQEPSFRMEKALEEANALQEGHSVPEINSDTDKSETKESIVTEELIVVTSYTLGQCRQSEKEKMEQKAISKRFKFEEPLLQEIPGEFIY
Description: DRAK1 kinase activity was also assessed. […] A DRAK1 kinase activity was performed by Reaction Biology. DRAK1 kinase activity was measured and plotted (FIG. 30).

[9] = test system: col1a2-mTmG mice; assay: Bleomycin injury and lung fibrosis, flow sorted lung cell populations, qPCR; format: in vivo, mouse; conditions: daily from day 10 after bleomycin injury, lungs sorted on day 14
Description: Seven days prior to injury col1a2-mTmG mice were treated with tamoxifen to turn on GFP expression in collagen producing fibroblasts. F-19 was administered daily starting on day 10 after injury, lungs were isolated, and lung tissue was flow sorted for fibroblasts, epithelial cells, and leukocytes on day 14. The sorted cells were subjected to RNA isolation followed by qPCR analysis of the indicated genes in each population of cells. N=3 mice/group.

| SMILES | EC50 [1] [µM] | EC50 [2] [µM] | EC50 [3] [µM] | other results |
| --- | --- | --- | --- | --- |
| O=c1c(O)c(-c2ccc(OCc3ccccc3)cc2)oc2ccccc12 [F-20] | 27.6 | 1.5 | 2 |  |
| O=c1c(O)c(-c2ccc(O)c(O)c2)oc2cc(O)cc(O)c12 [Quercetin, quercetin] |  |  |  | recovery at 4 h, 5 μM [4]: 0.8%; Plasma bound ([4]; 5 μM): 95%; Plasma unbound ([4]; 5 μM): 5.0%; CD68 expression (indicator of inflammatory activation) in brain or liver ([5]; oral gavage four consecutive days, euthanized one week later): lack of drug-induced toxicity |
| CCOc1ccc(-c2oc3ccc(OC)cc3c(=O)c2O)cc1 [6-MeOH—F-19] | 15.1 | 2.7 | 4 |  |
| CCCOc1ccc(-c2oc3ccccc3c(=O)c2O)cc1 [F-19(Me)] | 19.5 | 3.4 | 4 |  |
| CCOc1ccc(-c2oc3ccc(C)cc3c(=O)c2O)cc1OC [2-(4-ethoxy-3-methoxyphenyl)-3-hydroxy-6-methylchromen-4-one] |  |  |  | TGFβ stimulated collagen deposition (in words) [6]: blocked collagen deposition; senescent fibroblast survival (in words) [7]: effective toxicity against senescent cells |
| O=c1c(O)c(-c2ccc(O)c(O)c2)oc2cc(O)ccc12 [fisetin] |  |  |  | CD68 expression (indicator of inflammatory activation) in brain or liver ([5]; mouse, in vivo, po): lack of drug-induced toxicity |
| CCOc1ccc(-c2oc3ccccc3c(=O)c2O)cc1OCC [2-(3,4-diethoxyphenyl)-3-hydroxy-4h-1-benzopyran-4-one] |  |  |  | TGFβ stimulated collagen deposition (in words) [6]: blocked collagen deposition; senescent fibroblast survival (in words) [7]: effective toxicity against senescent cells |
| COc1cccc2oc(-c3ccc(OCc4ccncc4)cc3)c(O)c(=O)c12 [5-MeOH—F—4N] |  |  | 2.1 | Proliferating fibroblast apoptosis EC50 [1]: inactive; Senescent fibroblast apoptosis EC50 [2]: inactive; DRAK1 kinase activity [8]: inactive |
| O=c1c(O)c(-c2ccc(OCc3ccccn3)cc2)oc2ccccc12 [F—2N] |  |  |  | Proliferating fibroblast apoptosis EC50 [1]: inactive; Senescent fibroblast apoptosis EC50 [2]: inactive; Fibroblast activation (EC50) [3]: inactive |
| COc1ccc2oc(-c3ccc(OCc4ccccc4)cc3)c(O)c(=O)c2c1 [6-MeOH—F-20] | 5.1 | 0.8 | 2 |  |
| CCOc1ccc(-c2oc3ccccc3c(=O)c2O)cc1OC [F-19(3MeOH)] | 10.5 |  | 6.4 |  |
| CC(=O)CC(c1ccccc1)c1c(O)c2ccccc2oc1=O (stereo not shown) [Warfarin] |  |  |  | recovery at 4 h, 2 μM [4]: 100%; Plasma bound ([4]; 2 μM): 99%; Plasma unbound ([4]; 2 μM): 0.971% |
| CCOc1ccc(-c2oc3ccccc3c(=O)c2O)cc1 [F-19] | 24.5 | 2.4 | 2.4 | senescence markers or inflammatory cytokines in leukocytes (CD45+ cells), qPCR [9]: No changes |
| O=c1c(O)c(-c2ccc(OCC3CC3)cc2)oc2ccccc12 [F—CP] | 10.9 | 0.9 | 1.1 |  |
| COc1cccc2oc(-c3ccc(OCc4ccccc4)cc3)c(O)c(=O)c12 [5-MeOH—F-20] | 5.5 | 0.35 | 0.9 |  |
| O=c1c(O)c(-c2ccc(OCc3cccnc3)cc2)oc2ccccc12 [F—3N] |  | 44.1 |  | Proliferating fibroblast apoptosis EC50 [1]: inactive; Fibroblast activation (EC50) [3]: inactive |

From patent publication US20250368629A1, “FLAVONOID COMPOUNDS AND METHODS AND MATERIALS FOR USING FLAVONOID COMPOUNDS TO TREAT FIBROTIC CONDITIONS” (Mayo Foundation for Medical Education and Research, priority 2022, published 2025)
